Test results from patent US10973863B2, “Method for regulating, preventing and/or treating pulmonary injury” (SINPHAR PHARMACEUTICAL CO., LTD., priority 2017, dated 2021).

Columns and labels:
active-form MMP-9 = assay: Western blot: active-form MMP-9 expression in LPS-treated NR8383 cells; type: cell-based, rat; conditions: 0.01 μg/mL LPS; 6.25, 12.5, 25 and 50 μg/mL; 24 hours
Protocol: Rat alveolar macrophage NR8383 cells were divided into six groups and separately cultivated with the following media for 24 hours: • (1) Control group: a macrophage growth medium containing 0.01 μg/mL LPS; • (2) Positive control group: a macrophage growth medium containing 0.01 μg/mL LPS and 1 μM Dex; and • (3) Extract A group (including four sub-groups): a macrophage growth medium containing 0.01 μg/mL LPS and the extract A provided by [preparation example A-2-2], wherein the extract A is present in the four sub-groups at a concentration of 6.25, 12.5, 25 and 50 μg/mL respectively.
(§1) Thereafter, the proteins in the cells of each group were extracted and then subjected to a Western blot to measure the expression level of pro-form MMP-9 (i.e., the zymogen form of MMP-9), active-form MMP-9 and MMP-12. The relative expression level of pro-form MMP-9, active-form MMP-9 and MMP-12 of each group was calculated by using the results of the control group as a basis (i.e., the expression level of control group was served as 1-fold).
Rat alveolar macrophage NR8383 cells were divided into ten groups and separately cultivated with the following media for 24 hours:
(1) Control group: a macrophage growth medium containing 0.01 μg/mL LPS;
(2) Positive control group: a macrophage growth medium containing 0.01 μg/mL LPS and 1 μM Dex; […]

Mucin 5AC = assay: Western blot: LPS-induced expression of Mucin 5AC in NCI-H929 cells; type: cell-based, human; conditions: 1 μg/mL LPS, 24 hours, vs control group
Text: As indicated above, the hypersecretion of mucus in airway can be observed in the patients suffering from pulmonary injury-related diseases, such as chronic obstructive pulmonary disease and emphysema, and the mucus hypersecretion is associated with the overexpression of mucins in pulmonary tissue. Symptoms like the increased sputum production will occur in the patients suffering from the mucin hypersecretion in airway, and the increased sputum will accumulate in the airway and lung, thereby making the airway narrow and increasing respiratory resistance. To investigate the effects of active ingredients of FU-LING extract in regulating, preventing, and/or treating the pulmonary injury-related diseases, such as chronic obstructive pulmonary disease and emphysema, a Western blot was conducted to measure the inhibitory rate of active ingredients of FU-LING extract (tumulosic acid and poricoic acid A) on the LPS-induced expression of Mucin 5AC in human lung epithelial NCI-H929 cells.
Human lung epithelial NCI-H929 cells were divided into ten groups and separately cultivated with the following media for 24 hours:
(1) Control group: an epithelial cell growth medium containing […];
(2) Positive control group: an epithelial cell growth medium containing 1 μg/mL LPS and 10 μM Dex;
(3) TA group (including four sub-groups): an epithelial cell growth medium containing […] the tumulosic acid (TA) provided by [preparation example C-1], wherein the tumulosic acid (TA) is present in the four sub-groups at a concentration of 1.56, 3.13, 6.25 and 12.5 μg/mL respectively; and
(4) PAA group (including four sub-groups): an epithelial cell growth medium containing 1 μg/mL LPS the poricoic acid A (PAA) provided by [preparation example C-1], wherein the poricoic acid A (PAA) is present in the four sub-groups at a concentration of 6.25, 12.5, 25 and 50 μg/mL respectively.
as §1, with “Mucin 5AC.” for “pro-form MMP-9 (i.e., the zymogen form of MMP-9), active-form MMP-9 and MMP-12.”, “Mucin 5AC” for “pro-form MMP-9, active-form MMP-9 and MMP-12”

C=C(CC[C@@H](C(=O)O)[C@H]1[C@H](O)C[C@@]2(C)C3=CC[C@@H](C(=C)C)[C@](C)(CCC(=O)O)C3=CC[C@]12C)C(C)C [PAA, poricoic acid A]
Inhibitory rate on active-form MMP-9 (highest over tested concentrations) (active-form MMP-9): up to 44%
Inhibitory rate on LPS-induced expression of Mucin 5AC (Mucin 5AC; 6.25 μg/mL (low-dose)): up to 63%
Inhibitory rate on LPS-induced expression of Mucin 5AC (Mucin 5AC; 50 μg/mL (high-dose)): ≤ 87%
